≈ marks a conversion by molar mass, not a printed value. Entries after “also recorded” stand apart in the source; their conditions may differ.
Key:
NHE3 = NHE3 (Rattus norvegicus, UniProt P26433); details: cited from earlier work
NHE2 = details: cited from earlier work
NHE1 = NHE1 (Homo sapiens, UniProt P19634); details: cited from earlier work
[1] = system: human microvascular cells; test: Endothelial cord formation assay; assay type: cell-based
Text: Endothelial cells have the capacity in vitro to form tubular aggregates resembling capillaries in various early stages of formation. This conversion occurs under relatively specific conditions, in which essential growth factors along with an effective substratum are provided. It has been shown that both the interaction of growth factors with the endothelial cell and its attachment to a substratum activate the NHE. The activation of this exchanger is believed to be required for subsequent morphologic transformation of the endothelial cell into a multicellular tubular structure.
To assess the effect of compounds on the cord-like structures formed by human microvascular cells when plated in the presence of VGEF (Vascular Endothelial Growth Factor) and basic fibroblast growth factor on a collagen matrix, a standard cord formation assay was used.

Mouse IV PK study = details: in vivo
Description: To assess clearance, a mouse IV PK study was performed for compound 319 and squalamine. The compound was administered i.v. and blood samples were taken every 10 minutes. The concentration of the administered steroid was determined by HPLC analysis.

[2] = system: vitelline capillaries of 3- to 5-day chick embryo; test: Chick embryo vitelline capillary regression assay; assay type: in vivo; design: key to Vascular reactivity (capillary regression): + = Vascular reactivity; 0 = No vascular reactivity; +/− = Equivocal reactivity; details: for Vascular reactivity (capillary regression): 60 minutes
Description: Using the chick embryo vitelline capillaries assay, compounds were tested for their ability to induce capillary regression. Each compound was applied in 0.1 ml of 15% Ficol 400 and PBS onto the embryo, and vascular regression was assessed after 60 minutes.
The 3-day chick embryo consists of an embryonic disc from which numerous vessels emerge and return, forming a “figure 8”-shaped structure—the embryo in the center with vascular loops extending outward over both poles. […] Following a lag period of around 15 minutes, the constriction of continuity between capillary and secondary vessels, generally on the “venous” side, was observed. Continued pulsatile blood flow progressed, resulting in a “swelling” of the blind tube, followed by a pinching off of the remaining connection and formation of an enclosed vascular sac resembling a “blood island.” This process progressed until only the largest vessels remained intact.

B16 melanoma = test: Growth of B16 melanoma in C57B mice; assay type: in vivo; details: subcutaneous administration
Description: The growth of B16 melanoma in C57B mice is dependent upon neovascularization.
Using the growth of B16 melanoma cells in C57B mice, a recognized model for the evaluation of inhibitors of angiogenesis on the growth of cancers, the effects of subcutaneous, intraperitoneal and oral administration of squalamine were evaluated.
Animals were implanted with B16 melanoma followed by treatment with compound 1436 or 1256 administered in a combined schedule or separately. […] Thus, a combination of these two compounds achieves a therapeutic benefit in tumors dependent on neovascularization that may prevent metastatic spread.

[3] = system: Stage 59-60 Xenopus tadpoles; test: Xenopus tadpole assay; assay type: in vivo, Xenopus laevis; details: 10 μg/ml in water; for Pharmacological response observed in tadpole: about 1 hour
Text: A newly developed assay employing tadpoles, preferably Xenopus laevis Stages 59-60, were employed to study the effect of a compound by monitoring capillary occlusion in the tadpole's tail. […] The compounds of the invention affect the shape, viability and integrity of the embryonic tissues while not affecting the adult tissues, providing a powerful, highly specific screen. For example, substances that destroy all of the animal's epithelium, both adult and embryonic, could be regarded as toxic.
In this assay, tadpoles are introduced into Petri dishes containing a solution of the test compound in distilled water, preferably about 100 ml. The preferred concentration of the test compound is from about 1 μg/ml to about 10 μg/ml. The volume of liquid is sufficient for the animal to swim freely and drink from the solution. Thus, the effect observed results from oral absorption and subsequent systemic distribution of the agent. If the volume of liquid is not sufficient to permit oral intake, the effects that are observed would result from absorption through the surface epithelium. Thus, this simple assay can identify if an compound has characteristics of oral availability.
After an amount of time, typically about 60 minutes, the occlusion of blood flow through capillaries in the tadpole's tail are observed under an inverted microscope at a magnification of roughly 100×.
The tadpole assay described above provides an advantageous way to determine the pharmacological targets of each steroid when introduced into a mammal, and to determine pharmacological categories into which synthetic compounds belong. In the assay, each of the steroids was dissolved in 100 ml of distilled water at a concentration of 10 μg/ml. Stage 59-60 Xenopus tadpoles were introduced and evaluated by light microscopy and gross observation 1 hour later.

Lewis lung carcinoma = test: In vitro cell growth inhibition (assay of Baker et al.); assay type: cell-based
Text: (§1) As set forth in Table 7 below, all malignant tumors evaluated in tissue culture, endothelial cells and vascular smooth muscle cells were sensitive to inhibition. Thus, compound 1436 has application in the control of growth factor dependent proliferation of many types of tissue.

Human melanoma WM 1167 = test: Cytotoxic activity against cancer cells
[4] = system: PHA-stimulated human lymphocytes; test: Inhibition of mitogen-stimulated growth of human T-cells; assay type: cell-based; details: 72 hours
Description: Human heparinized blood, freshly collected, was introduced into tissue culture flasks containing 10 μg/ml phytohaemagglutinin (PHA) in RPMI medium with 10% FCS. Various purified steroids were introduced subsequently at concentrations of 1, 5, and 10 μg/ml. Cultures were incubated for 72 hours, after which time colcemid was added to 1 μg/ml. Cultures were maintained for an additional 2 hours, and cells collected. Mitotic figures were estimated using standard cytochemical techniques, following Giemsa staining.

[5] = Fasting blood glucose in mice; assay type: in vivo
Description: To study the effect of steroid administrator or the NHE responsible for secretion of insulin, several of the aminosterols from shark liver were administered to fasting mice. Male CD-1 mice were assigned to one of four treatment groups. Whole blood glucose was tested using glucometer (Lifescan Glucometer II and One Touch test strips). Statistical analysis was via one-way analysis of variance (ANOVA) followed by subsequent Bonferonni's t-test.

[6] = system: Human ovarian carcinoma SKOV3; test: In vitro cell growth inhibition (assay of Baker et al.); assay type: cell-based
Description: as §1
Using the assay described above, the anticancer effects of compound 1437 against several cancer lines was assessed.

MTT (Table II) = assay type: cell-based
Text: As set forth in Table II, which follows Table I, the activities of natural and synthetic aminosterols in the different assays vary. In light of the foregoing, it is now possible to screen for steroids with or without squalamine-like pharmacological activity.

Chain of NHE3 (P26433 29-831): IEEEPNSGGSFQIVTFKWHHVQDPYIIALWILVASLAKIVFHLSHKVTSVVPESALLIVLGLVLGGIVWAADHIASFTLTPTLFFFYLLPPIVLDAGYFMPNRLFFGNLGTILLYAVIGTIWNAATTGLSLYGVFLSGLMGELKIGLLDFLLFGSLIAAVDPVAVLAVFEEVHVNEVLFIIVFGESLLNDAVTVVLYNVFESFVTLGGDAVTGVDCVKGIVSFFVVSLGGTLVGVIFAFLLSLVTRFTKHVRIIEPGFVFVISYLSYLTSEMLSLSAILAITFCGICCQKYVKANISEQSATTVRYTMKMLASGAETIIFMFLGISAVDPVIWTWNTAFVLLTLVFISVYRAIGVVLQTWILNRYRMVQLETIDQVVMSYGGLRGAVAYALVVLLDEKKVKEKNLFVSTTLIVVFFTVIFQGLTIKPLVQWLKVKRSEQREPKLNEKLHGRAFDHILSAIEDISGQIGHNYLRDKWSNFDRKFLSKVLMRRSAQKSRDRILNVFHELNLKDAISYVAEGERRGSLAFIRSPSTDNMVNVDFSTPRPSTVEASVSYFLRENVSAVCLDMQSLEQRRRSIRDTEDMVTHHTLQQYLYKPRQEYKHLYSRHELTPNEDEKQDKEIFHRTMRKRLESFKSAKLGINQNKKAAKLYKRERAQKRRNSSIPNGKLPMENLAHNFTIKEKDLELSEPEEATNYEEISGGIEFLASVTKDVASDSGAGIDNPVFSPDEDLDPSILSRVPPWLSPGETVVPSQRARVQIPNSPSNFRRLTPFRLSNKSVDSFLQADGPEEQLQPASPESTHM
Chain of NHE1 (P19634 whole entry, species assumed): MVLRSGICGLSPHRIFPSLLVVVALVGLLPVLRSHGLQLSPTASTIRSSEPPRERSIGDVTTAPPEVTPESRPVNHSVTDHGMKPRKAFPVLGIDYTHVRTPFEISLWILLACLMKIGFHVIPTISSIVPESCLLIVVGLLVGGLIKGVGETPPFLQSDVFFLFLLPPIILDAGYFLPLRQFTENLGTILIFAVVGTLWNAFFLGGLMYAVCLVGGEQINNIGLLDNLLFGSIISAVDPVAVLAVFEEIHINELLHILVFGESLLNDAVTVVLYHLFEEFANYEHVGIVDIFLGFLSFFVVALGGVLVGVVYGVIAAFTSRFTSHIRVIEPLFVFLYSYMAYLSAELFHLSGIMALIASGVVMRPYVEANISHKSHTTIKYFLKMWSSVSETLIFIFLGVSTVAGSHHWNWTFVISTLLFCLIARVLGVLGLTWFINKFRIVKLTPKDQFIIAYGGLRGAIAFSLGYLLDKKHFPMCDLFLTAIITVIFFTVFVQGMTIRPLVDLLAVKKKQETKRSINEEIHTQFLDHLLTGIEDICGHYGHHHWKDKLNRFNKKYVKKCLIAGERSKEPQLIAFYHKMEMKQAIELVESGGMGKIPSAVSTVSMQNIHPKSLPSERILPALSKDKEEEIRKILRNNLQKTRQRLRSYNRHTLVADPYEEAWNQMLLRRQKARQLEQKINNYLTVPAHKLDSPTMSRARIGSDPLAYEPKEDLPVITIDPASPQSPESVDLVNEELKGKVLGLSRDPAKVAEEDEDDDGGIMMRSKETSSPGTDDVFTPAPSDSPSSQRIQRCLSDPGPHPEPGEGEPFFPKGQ

For CS(=O)(=O)c1cc(C(=O)NC(=N)N)ccc1N1CCCCC1 [(3-methylsulfonyl-4-piperidinobenzoyl) guanidine methanesulfonate], the Ki (NHE3) is given as 650 µM, the Ki (NHE2) is given as 5 µM and the Ki (NHE1) is given as 0.16 µM.
In the case of N=C(N)NC(=O)c1nc(Cl)c(N)nc1N [Amiloride], the Ki (NHE3) is given as 100 µM and the Ki (NHE2) is given as 3 µM.
For CC(CCC(=O)O)[C@H]1CCC2C3CC[C@H]4C[C@@H](NCCCNCCCCN)CC[C@]4(C)C3CC[C@@]21C (stereo partly drawn) [Compound 319], the “Effect on endothelial cord formation” value ([1]; 0.01 μg/ml) was “−”, the “Effect on endothelial cord formation” value ([1]; 0.1 μg/ml) was “+” and the “Effect on endothelial cord formation” value ([1]; 1.0 μg/ml) was “+”. For the same compound, the “Effect on endothelial cord formation” value ([1]; 10.0 μg/ml) was “+”, the half-life (Mouse IV PK study) was ~14 min and the “Vascular reactivity (capillary regression)” value (“Vascular reactivity” for short) ([2]; 0.001 μg applied) was “+/−”. For the same compound, the “Vascular reactivity” value ([2]; 0.01 μg applied) was “+”, the “Vascular reactivity” value ([2]; 0.1 μg applied) was “+” and the “Vascular reactivity” value ([2]; 1 μg applied) was “+”. The “Vascular reactivity” value ([2]; 10 μg applied) was “+”, the “Control of B16 melanoma” value (B16 melanoma) was “achieved control of B16 in C57B mice to an extent almost comparable to squalamine” and the “Pharmacological category in tadpole assay (similarity to a reference steroid)” value [3] was “common vascular occlusive effect”.
In the case of CC(C)CCCC(C)[C@H]1CCC2C3CC[C@H]4C[C@@H](NCCCNCCCCNCCCN)CC[C@]4(C)C3CC[C@@]21C (stereo partly drawn) [Compound 353], the IC50 (Lewis lung carcinoma) is reported as 1.9 µg/mL (≈ 3.32 µM), the “Effect on endothelial cord formation” value ([1]; 0.1 μg/ml) is reported as “+” and the “Effect on endothelial cord formation” value ([1]; 1.0 μg/ml) is reported as “+”. The “Effect on endothelial cord formation” value ([1]; 10.0 μg/ml) was “+”, the “Vascular reactivity” value ([2]; 1 μg applied) was “+/−” and the “Effect on chick embryo capillary bed” value ([2]; in vivo) was “no effect on the chick embryo capillary bed”. For the same compound, the “Mechanism of cell death in exposed cells” value (Human melanoma WM 1167) was “apoptotic cell death has been induced”, the IC50 (Human melanoma WM 1167; Homo sapiens) was 3 µg/mL (≈ 5.24 µM) and the “Pharmacological category in tadpole assay (similarity to a reference steroid)” value [3] was “effects like those produced by compound 1436”.
In the case of CC(COS(=O)(=O)O)C(=O)CCC(C)[C@H]1CCC2C3C(CC[C@@]21C)[C@@]1(C)CC[C@H](NCCCNCCCCN)C[C@@H]1C[C@H]3O (stereo partly drawn) [Compound 1360], the “Vascular reactivity” value ([2]; 1 μg applied) is reported as 0, the “Effect on blood circulating through the embryonic vessels” value ([2]; within 20 minutes of application) is reported as “exhibited a brighter red color” and the “Inhibition of PHA-stimulated human lymphocytes” value (from here on “Inhibition”) ([4]; 1 μg/ml) is reported as 5 % control. The “Inhibition” value ([4]; 5 μg/ml) was 5 % control, the “Inhibition” value ([4]; 10 μg/ml) was 5 % control and the “Pharmacological response observed in tadpole” value [3] was “Swelling and lysis of certain erythrocytes occurred, resulting in accumulation of nuclei within certain small vessels of the tail”. For the same compound, the “Pharmacological response observed in tadpole” value ([3]; listed as compound 1360) was “extensive vasocclusion occurred within 60 minutes throughout the tail”.
With CC(CCC(CO)(OS(=O)(=O)O)C(C)C)[C@H]1CCC2C3C(CC[C@@]21C)[C@@]1(C)CC[C@H](NCCCNCCCCN)C[C@@H]1C[C@H]3O (stereo partly drawn) [Compound 1437] the “Effect on blood glucose” value ([5]; intravenous, 1436 in D5W (5% glucose), 1437 in water) was “caused hyperglycemia in mice”, the “Fasting Blood Glucose Mean + SEM” value ([5]; male CD-1 mice, 2 × 10 mg/kg i.v. (total 20 mg/kg), overnight fast, blood 30 min. after 2d dose, 1437 and 1256 in H2O, 1436 in D5W) was 82 ± 15.3 mg/dL and the Anticancer activity [6] was “exhibit anticancer activity”. The “Inhibition” value ([4]; 10 μg/ml) was 10 % control and the “Pharmacological response observed in tadpole” value [3] was “Epithelium covering the embryonic portions of the animal, such as the tail and antennae, began to slough off in sheets; also recorded: the larval skin was observed to shed off in a sheet”.
For CCCN(C)c1nc(N)c(C(=O)N=C(N)N)nc1Cl [MPA, methylpropylamiloride], the Ki (NHE3) is listed as 10 µM, the Ki (NHE2) is listed as 5 µM and the Ki (NHE1) is listed as 0.08 µM.
With CC(C)CCCC(C)[C@H]1CCC2C3CC[C@H]4C[C@@H](NCCCNCCCCNCCCN)CC[C@]4(C)C3CC[C@@]21C (stereo partly drawn) [drawing 96] the MTT (MTT (Table II)) was 19 µg/mL and the “Cord Formation, Minimum Effective Concentration” value [1] was 10 µg/mL.
With CC(CC[C@@H](OS(=O)(=O)O)C(C)C)[C@H]1CCC2C3C(CC[C@@]21C)[C@@]1(C)CC[C@H](NCCCNCCCCN)C[C@@H]1C[C@H]3O (stereo partly drawn) [drawing 164] the MTT (MTT (Table II)) was 32 µg/mL.
Work on CC(CC[C@@H](OS(=O)(=O)O)C(C)C)[C@H]1CCC2C3C(CC[C@@]21C)[C@@]1(C)CC[C@H](NCCCNCCCCNCCCN)C[C@@H]1C[C@H]3O (stereo partly drawn) [drawing 170] yielded an MTT (MTT (Table II)) of 67 µg/mL.
For dimethylamiloride [DMA], the Ki (NHE3) is listed as 11 µM, the Ki (NHE2) is listed as 0.7 µM and the Ki (NHE1) is listed as 0.1 µM.

Reference: patent US6962909B2, “Treatment of neovascularization disorders with squalimine” (Genaera Corporation, priority 1995, dated 2005)
